# Reference: US11401303B2, “Synthetic peptide BRAP and application in preparation of anti-inflammatory drug for COVID-19 thereof” (TAIAN CITY QIHANG BIOTECHNOLOGY CO., priority 2020, dated 2022)
# Ends that are not written are not given here.
# Legend:
# IL-6 = IL-6 content in blood serum of LPS-induced mice (ELISA); type: in vivo, Balb/C mice
# Procedure: 1. A reagent was taken out of a kit and balanced for 30 min at room temperature;
# 2. standard wells and sample wells were set, and 50 ul standards at different concentrations were respectively added to each standard well.
# 3. 50 ul sample to be tested (blood sample from each group of mice model constructed in example 9) was first added to the wells of the sample to be tested;
# 4. 100 ul HRP-labeled detection antibody was respectively added to each standard well and well to be tested;
# 5. reaction wells were sealed by a microplate membrane for incubation for 60 min at 37° C.;
# 6. liquid was discarded, water was dried by an absorbent paper, each well was filled with scrubbing solution, standing for 1 min;
# 7. a culture solution was discarded, water was dried by an absorbent paper, and steps 2-6 were operated repeatedly for 5 times;
# 8. 50 ul substrate A/B was respectively added to each well for incubation for 15 min at 37° C.;
# 9. 50 ul stop buffer was added to each well to detect an OD value at 450 nm by an microplate reader within 15 min.
# Bradykinin B2 receptor = Bradykinin B2 receptor (Homo sapiens, UniProt P30411); test: cell-based
# Sequence of Bradykinin B2 receptor (P30411 whole entry): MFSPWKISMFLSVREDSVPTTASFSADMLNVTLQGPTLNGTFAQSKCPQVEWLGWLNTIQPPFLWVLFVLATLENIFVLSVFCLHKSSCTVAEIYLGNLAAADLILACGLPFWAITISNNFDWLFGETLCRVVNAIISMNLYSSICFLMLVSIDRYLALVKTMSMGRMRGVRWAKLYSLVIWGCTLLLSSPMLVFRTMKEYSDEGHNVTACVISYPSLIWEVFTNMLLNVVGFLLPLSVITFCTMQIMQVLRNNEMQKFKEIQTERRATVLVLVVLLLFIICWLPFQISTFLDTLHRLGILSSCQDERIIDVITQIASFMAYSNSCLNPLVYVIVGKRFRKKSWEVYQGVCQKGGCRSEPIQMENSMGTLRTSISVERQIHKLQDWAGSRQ
sequence,measurement,setting,value
RVLNGPEAPA [brap],IL-6 level in serum compared with the model group,"IL-6; low, medium and high-dose intravenous injection groups, p<0.01",dose-response relationship
same,IL-6 level in LPS-induced blood,"IL-6; nasal dripping group, at 12 h, P<0.05",can decrease
same,IC50,Bradykinin B2 receptor,~1 mM
